How the values were obtained:
[1] = test system: Blumeria graminis f. sp. tritici (Erysiphe graminis f. sp. tritici); experiment: Blumeria graminis f. sp. tritici / wheat / leaf disc preventative (powdery mildew on wheat); format: in vivo; details: 200 ppm, wheat leaf segments, inoculated 1 day after application, compared to untreated control
Procedure: 4. Blumeria Graminis f. Sp. Tritici (Erysiphe graminis f. Sp. Tritici)/Wheat/Leaf Disc Preventative (Powdery Mildew on Wheat)
Wheat leaf segments cv. Kanzler are placed on agar in a multiwell plate (24-well format) and sprayed with the formulated test compound diluted in water. The leaf disks are inoculated by shaking powdery mildew infected plants above the test plates 1 day after application. The inoculated leaf disks are incubated at 20° C. and 60% rh under a light regime of 24 h darkness followed by 12 h light/12 h darkness in a climate chamber and the activity of a compound is assessed as percent disease control compared to untreated when an appropriate level of disease damage appears on untreated check leaf segments (6-8 days after application).

Gaeumannomyces graminis = Gaeumannomyces graminis / liquid culture (take-all of cereals); format: cell-based; details: growth inhibition photometrically 4-5 days after application, compared to untreated control
Method in brief: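 Mycelial fragments from cryogenic storage in potato dextrose broth added to compound in DMSO, 96-well format. Incubated at 24° C; growth inhibition read photometrically 4-5 days after application.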

Phytophthora infestans = experiment: whole plant or invertebrate; format: in vivo; details: in Solanum lycopersicum, foliar, read-out: control of Phytophthora infestans
[2] = test system: Monographella nivalis (Microdochium nivale); experiment: Monographella nivalis (Microdochium nivale) / liquid culture (foot rot cereals); format: cell-based; details: growth inhibition photometrically 4-5 days after application, compared to untreated control
Method in brief: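 Conidia from cryogenic storage were mixed into potato dextrose broth and added to wells holding test compound in DMSO. Incubation was at 24° C, with growth inhibition measured photometrically 4-5 days after application.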

[3] = test system: Puccinia recondite f. sp. tritici; experiment: Puccinia recondite f. sp. tritici / wheat / leaf disc preventative (brown rust); format: in vivo; details: foliar, wheat leaf segments, inoculated 1 day after application, compared to untreated control
Procedure: 13. Puccinia recondite f. Sp. Tritici/Wheat/Leaf Disc Preventative (Brown Rust) Wheat leaf segments cv. Kanzler are placed on agar in multiwell plates (24-well format) and sprayed with the formulated test compound diluted in water. The leaf disks are inoculated with a spore suspension of the fungus 1 day after application. The inoculated leaf segments are incubated at 19° C. and 75% rh under a light regime of 12 h light/12 h darkness in a climate cabinet and the activity of a compound is assessed as percent disease control compared to untreated when an appropriate level of disease damage appears in untreated check leaf segments (7-9 days after application).

[4] = test system: Glomerella lagenarium (Colletotrichum lagenarium); experiment: Glomerella lagenarium (Colletotrichum lagenarium) / liquid culture (anthracnose); format: cell-based; details: Colletotrichum orbiculare, growth inhibition photometrically 3-4 days after application, compared to untreated control
Method in brief: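 Conidia from cryogenic storage suspended in potato dextrose broth and added to test compound in DMSO. Incubation at 24° C; growth inhibition read photometrically 3-4 days after application.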

Pythium ultimum = Pythium ultimum / liquid culture (seedling damping off); format: cell-based; details: Globisporangium ultimum, growth inhibition photometrically 2-3 days after application, compared to untreated control
Method in brief: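 Fungal mycelia fragments and oospores from fresh liquid culture mixed into potato dextrose broth and added to DMSO solutions of test compound. Incubated at 24° C.; growth inhibition read photometrically 2-3 days after application.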

[5] = test system: Mycosphaerella graminicola (Septoria tritici); experiment: Mycosphaerella graminicola (Septoria tritici) / liquid culture (Septoria blotch); format: cell-based; details: Zymoseptoria tritici, growth inhibition photometrically 4-5 days after application, compared to untreated control
Procedure: 18. Mycosphaerella graminicola (Septoria tritici)/Liquid Culture (Septoria Blotch) Conidia of the fungus from cryogenic storage are directly mixed into nutrient broth (PDB potato dextrose broth). After placing a (DMSO) solution of test compound into a microtiter plate (96-well format), the nutrient broth containing the fungal spores is added. The test plates are incubated at 24° C. and the inhibition of growth is determined photometrically 4-5 days after application.

[6] = test system: Thanatephorus cucumeris (Rhizoctonia solani); experiment: Thanatephorus cucumeris (Rhizoctonia solani) / liquid culture (foot rot, damping-off); format: cell-based; details: growth inhibition photometrically 3-4 days after application, compared to untreated control
Procedure: 16. Thanatephorus cucumeris (Rhizoctonia solani)/Liquid Culture (Foot Rot, Damping-Off) Mycelia fragments of a newly grown liquid culture of the fungus are directly mixed into nutrient broth (PDB potato dextrose broth). After placing a (DMSO) solution of the test compounds into a microtiter plate (96-well format), the nutrient broth containing the fungal material is added. The test plates are incubated at 24° C. and the inhibition of growth is determined photometrically 3-4 days after application.

Pyrenophora teres = Pyrenophora teres / barley / leaf disc preventative (net blotch); format: in vivo; details: 200 ppm, barley leaf segments, inoculated 2 days after application, compared to untreated control
Procedure: 14. Pyrenophora teres/Barley/Leaf Disc Preventative (Net Blotch) Barley leaf segments cv. Hasso are placed on agar in a multiwell plate (24-well format) and sprayed with the formulated test compound diluted in water. The leaf segments are inoculated with a spore suspension of the fungus 2 days after application. The inoculated leaf segments are incubated at 20° C. and 65% rh under a light regime of 12 h light/12 h darkness in a climate cabinet and the activity of a compound is assessed as disease control compared to untreated when an appropriate level of disease damage appears in untreated check leaf segments (5-7 days after application).

SMILES	control of Blumeria graminis f. sp. tritici [1]	inhibition of growth at 20 ppm (Gaeumannomyces graminis)	pest or weed control at 200 ppm (Phytophthora infestans)	inhibition of growth at 20 ppm [2]	pest or weed control at 200 ppm [3]	inhibition of growth at 20 ppm [4]	inhibition of growth at 20 ppm (Pythium ultimum)	inhibition of growth at 20 ppm [5]	inhibition of growth at 20 ppm [6]	melting point	control of Pyrenophora teres (Pyrenophora teres)
COc1c(C(=O)NC(C)c2ncc(F)cc2F)ccc2c1B(O)OC2 (stereo not drawn) [Compound 20, N-[1-(3,5-difluoro-2-pyridyl)ethyl]-1-hydroxy-7-methoxy-3H-2,1-benzoxaborole-6-carboxamide]	at least 80%	–	–	–	–	–	–	–	–	–	–
CCOC(=O)c1ccc2c(c1Cl)B(O)OC2 [Compound 9, ethyl 7-chloro-1-hydroxy-3H-2,1-benzoxaborole-6-carboxylate]	–	≥ 80%	≥ 80%	≥ 80%	≥ 80%	≥ 80%	≥ 80%	≥ 80%	≥ 80%	132 to 133 °C	–
CCc1ccc(NC(=O)c2ccc3c(c2OC)B(O)OC3)cc1 [Compound 29, N-(4-ethylphenyl)-1-hydroxy-7-methoxy-3H-2,1-benzoxaborole-6-carboxamide]	–	–	–	≥ 80%	–	≥ 80%	≥ 80%	≥ 80%	–	–	at least 80%
